Test results: patent US10028971B2, “Compositions and methods for treating psychiatric disorders” (GOSFORTH CENTRE (HOLDINGS) PTY LTD., priority 2008, dated 2018)
Where a name gives a salt, the structure may show the parent alone. Read-outs that look alike come from different tables or passages of the source.

Columns and labels:
[1] = test system: mood stabilisation or epileptic symptoms or events; settings: cited from earlier work
adults with ADHD = settings: person
Method: In the clinical setting a number of adults with ADHD experienced a combination therapy of stimulant medication (dexamphetamine) in combination with sodium valproate (VPA). The initial dosages used were from 15 to 70 mg/day of dexamphetamine and from 100 to 700 mg/day of VPA (Epilim) (=approximately 2 to 10 mg/kg/day).
The determination of the dose for the dexamphetamine was undertaken in a clinical sensitive open label manner. The dose was titrated upwards dependent on the clinical response and the freedom from side-effects. The dose range was between 15 and 70 mg a day. The frequency of the dosing also varied dependent upon the clinical response. The usual dose interval was between two to four hours. This dosing adjustment took place prior to the commencement of the sodium valproate. The sodium valproate medication was initiated once a day at 50 mg tablet or elixir and titrated upwards dependent on response, but not more than one increase every three days. The dose was given as a once or twice a day regime. During the titration phase, if clinically possible, no other adjustments to the pharmacotherapy were undertaken.

[2] = test system: individuals with developmental dyspraxia / poor coordination; assay: Treatment of developmental dyspraxia, clinical observation; assay type: in vivo, human; settings: person, ADHD; dexamphetamine 25 mg daily augmented with atomexetine 60 mg and sodium valproate 150 mg
Text: Many of the individuals treated at this clinic, with a diagnosis of ADHD and/or pervasive development disorder such Asperger's Syndrome or autism also present with symptoms consistent with a diagnosis of a developmental coordination disorder. They are often described as ‘unco’ (unco-ordinated) by their peers and experience victimization, poor self-esteem and frustration as a consequence of their poor coordination. […] Individuals have described a sense of having more time to coordinate movements and to understand and integrate their own activity appropriately within a team sport such as soccer, which has previously eluded them. Individuals have felt frustration at being able to practise repeatedly an activity or skill only to be unable to put it into practice when required, within the play of a match. It is proposed that individuals were previously unable to process and plan their own coordination but remain aware of the general activity in which they were participating.

[3] = usual minimum anti-convulsant dose per day

Row | Compound | Minimum Dose/day effective for mood stabilisation or treatment of epileptic symptoms or events [1, 3] | other results
1 | CCC1(c2ccc(N)cc2)CCC(=O)NC1=O (stereo not shown) [Aminoglutethimide] | 125 mg | –
2 | CCC1(c2ccccc2)C(=O)NC(=O)NC1=O.CNC(C)CC1CCCCC1 [Barbexaclone] | 200 mg in divided doses | –
3 | CCC[C@@H]1CC(=O)N([C@@H](CC)C(N)=O)C1 [Brivaracetam] | 100 mg | –
4 | NC(=O)N1c2ccccc2C=Cc2ccccc21 [Carbamazepine] | 400 mg | typical dose for treating epileptic seizures ([1]; in vivo): 400 to 800 mg/day; clinical outcome (case), compared with oxycarbamazepine (adults with ADHD; switched to carbamazepine): less effective
5 | CN1C(=O)CC(=O)N(c2ccccc2)c2cc(Cl)ccc21 [Clobazam] | – | Minimum Dose/day effective for mood stabilisation or treatment of epileptic symptoms or events ([1]; usual minimum anti-convulsant dose): 5 mg/kg daily
6 | O=C1CN=C(c2ccccc2Cl)c2cc([N+](=O)[O-])ccc2N1 [Clonazepam] | 1 mg | –
7 | CCN1C(=O)OC(C)(C)C1=O [Ethadione] | 1000 mg | –
8 | CCC1(C)CC(=O)NC1=O (stereo not shown) [Ethosuximide] | 1000 mg | –
9 | CCN1C(=O)NC(c2ccccc2)C1=O (stereo not shown) [Ethotoin] | 1000 mg | –
10 | NC(=O)OCC(COC(N)=O)c1ccccc1 [Felbamate] | 1200 mg | –
11 | O=C1NC(c2ccccc2)(c2ccccc2)C(=O)N1COP(=O)(O)O [Fosphenytoin Sodium] | 10 mg/kg | –
12 | NCC1(CC(=O)O)CCCCC1 [Gabapentin, 2-[1-(aminomethyl)cyclohexyl]acetic acid] | 900 mg | –
13 | COC[C@@H](NC(C)=O)C(=O)NCc1ccccc1 [Lacosamide] | 200 mg | –
14 | Nc1nnc(-c2cccc(Cl)c2Cl)c(N)n1 [Lamotrigine, 3,5-diamino-6-(2,3-dichlorophenyl)-1,2,4-triazine] | 100 mg | –
15 | CC[C@@H](C(N)=O)N1CCCC1=O [Levetiracetam] | 1000 mg | –
16 | COC1=CC(=O)OC1C(O)c1ccccc1Cl (stereo not shown) [Losigamone] | 1500 mg | –
17 | CCC1(c2ccccc2)NC(=O)N(C)C1=O (stereo not shown) [Mephenytoin] | 200 mg | –

Row | Compound | Minimum Dose/day effective for mood stabilisation or treatment of epileptic symptoms or events [1, 3] | other results
18 | CCC1(c2ccccc2)NC(=O)N(C)C1=O (stereo not shown) [Methoin] | 1000 mg | –
19 | CN1C(=O)CC(C)(c2ccccc2)C1=O (stereo not shown) [Methsuximide] | 300 mg | –
20 | NC(=O)N1c2ccccc2CC(=O)c2ccccc21 [Oxcarbazepine] | 600 mg | clinical outcome (case) (adults with ADHD; ADHD, 37.5 mg oxycarbamazepine added to dexamphetamine 40 mg and 'sodium to operate' 400 mg daily): significant improvement in their cognitive functioning; clinical outcome (case) (adults with ADHD; oxycarbamazepine dose increased to 75 mg): improved again
21 | CCC1(C)OC(=O)N(C)C1=O (stereo not shown) [Paramethadione] | 300 mg | –
22 | N#Cc1ccccc1-c1cc(-c2ccccn2)cn(-c2ccccc2)c1=O [Perampanel] | 2 mg | –
23 | NC(=O)NC(=O)Cc1ccccc1 [Phenacemide] | 500 mg | –
24 | CCC(C(=O)NC(N)=O)c1ccccc1 (stereo not shown) [Pheneturide] | 600 mg | –
25 | CN1C(=O)CC(c2ccccc2)C1=O (stereo not shown) [Phensuximide] | 1000 mg | –
26 | CC(C)C[C@H](CN)CC(=O)O [Pregabalin, (S)-3-(aminomethyl)-5-methylhexanoic acid] | 300 mg | –
27 | CCC1(c2ccccc2)C(=O)NCNC1=O [Primidone] | 750 mg | –
28 | NS(=O)(=O)c1ccc(N2CCCCS2(=O)=O)cc1 [Sultiame] | 200 mg | –
29 | Cc1ccsc1C(=CCCN1CCC[C@@H](C(=O)O)C1)c1sccc1C [Tiagabine Hydrochloride] | 30 mg | –
30 | CN1C(=O)OC(C)(C)C1=O [Trimethadione] | 900 mg | –
31 | C=CC(N)CCC(=O)O (stereo not shown) [Vigabatrin] | 1000 mg | –
32 | NS(=O)(=O)Cc1noc2ccccc12 [Zonisamide] | 200 mg | –
33 | CNCC[C@@H](Oc1ccccc1C)c1ccccc1 [atomexetine, (3R)—N-methyl-3-(2-methylphenoxy)-3-phenyl-propan-1-amine] | – | clinical outcome (case) [2]: Significant improvement in psychosocial functioning
